The values below come from US20250115581A1, “SUBSTITUTED PIPERIDINES AS CK1A DEGRADERS” (Monte Rosa Therapeutics, Inc., priority 2022, published 2025).

The subject of data set [1] is SKCO1. The data set can be described thus: Growth inhibition, CyQUANT Direct Cell Proliferation Assay, SKCO1. As to conditions: Homo sapiens, SK-CO-1; SKCO1 cells, 120 to 168 hours. The data set is classed as cell-based. On the procedure: (§1) SKCO1, LS180, and LS174T cell lines were purchased from ATCC. CW2 cell line was purchased from Riken. GP2D cell line was purchased from Sigma/ECACC. All cell lines were cultured in manufacturer's recommended media at 37° C., 5% CO2. Briefly, cells were suspended in 200 μL of media and seeded at 300 to 1,800 cells per well in tissue culture treated 96-well plates with black walls and clear bottom. Plates were incubated overnight and initial (TO) read was performed the following day using CyQUANT Direct Cell Proliferation Assay Kit (Thermo Fisher Scientific) according to manufacturer's protocol. All compounds were solubilized in DMSO and prepared at 3-fold serial dilution, using 9 points starting at 30 μM as highest concentration, administered to cells and incubated for 120 to 168 hours, at which point CyQUANT assay measurement was performed using Acumen Cellista instrument (Ex/Em 480/520 nm). Media-only wells were used as blank, and 0.3% DMSO was used as DMSO-treated cell control. Growth inhibition (percent response) was calculated using the following formula in Excel: “=if ([Compound treated Day N]>[Untreated Day 0, AVG], ([Compound treated Day N]− [Untreated Day 0, AVG])/([Untreated Day N]−[Untreated Day 0, AVG])*100, ([Compound Treated Day N]−[Untreated Day 0, AVG])/([Untreated Day 0, AVG])*100)”. GI50 is the response corresponding to the 50% of untreated control.
(§2) GI50 data are reported in Tables 4a, 4b, 4c, 4d, and 4e for compounds in Table 1. In Tables 4a, 4b, 4c, 4d, and 4e below, According to the code, A represents a GI50 value of ≤0.1 μM, B represents a GI50 value >0.1 μM and ≤1 μM, C represents an GI50 value >1 μM.

In data set [2] the test system is LS180. Put plainly: Growth inhibition, CyQUANT Direct Cell Proliferation Assay, LS180. As to conditions: Homo sapiens; LS180 cells, 120 to 168 hours. The data set is classed as cell-based. As to the method: as §1, §2
Data set [3] concerns the target T1, CK1α (Homo sapiens, UniProt P48729+Q96SW2).
T1 construct: HEK293 clonal lines with CRISPR KI HiBiT tag on CSNK1A1; host or cells: HEK293 clonal line, CRISPR knock-in HiBiT at the CSNK1A1 locus, stably expressing LgBiT
Put plainly: CK1α NanoBit Assay (HiBiT-tagged CSNK1A1 in HEK293 cells, luminescence). The data set is classed as cell-based. To be noted: 24 h. The method in brief:
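HEK293 with endogenous HiBiT-tagged CSNK1A1 and stable LgBiT, live-cell Endurazine substrate; compound added at 10 or 30 μM final top concentration after 16 h plating, then 24 h at 37 °C. Luminescence normalised to plate controls; DC50 by 3-parameter logistic fit, hill slope 1.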

Data set [4] deals with T1, CK1α. The data set can be described thus: Western blot of CK1α levels in cereblon (CRBN) knock-out HEK293 cell line. It counts as cell-based. As to conditions: 0.1, 1, 10 μM, 24 hours. On the procedure:
(§3) FIG. 1 depicts effects of compound 101 on CK1α levels in an HEK293 cell line in comparison to effects of compound 101 on CK1α levels in a cereblon (CRBN) knock-out HEK293 cell line.
(§4) HEK293 cell line is purchased from ATCC (CRL-1573). HEK293 CRBN knock out (k/o) cell line (B2) is generated internally using CRISPR/Cas9 method and clonally expanded. Cells are plated at 2×10^5 cells per well in 6-well tissue culture plates (VWR) in 2 ml of DMEM media (Gibco) containing 10% FBS (Gibco), and incubated for 16 hours at 37° C., 5% CO2. Compounds are added to final concentration of 0.1 μM, 1 μM, 10 μM (DMSO concentration is kept constant at 0.1%), following incubation at 37° C., 5% CO2 for additional 24 hours. Cell lysis is performed using RIPA buffer (Pierce) containing Halt™ Protease Inhibitor Cocktail (ThermoFisher Scientific). Lysates are boiled at 95° C. for 10 minutes and 12 μg of protein lysate per sample is resolved by SDS-PAGE using 12% gels (BioRad) and transferred to nitrocellulose membrane (BioRad). Membranes are blocked using LI-COR blocking buffer (LI-COR) at room temperature for 1 hour, followed by overnight incubation with rabbit anti-CK1α (Abcam ab206652), rabbit anti-CRBN (Sigma HPA045910) and mouse anti-α-tubulin (Sigma T9026) antibodies at 4° C. Secondary antibodies (LI-COR) are added for a hour at room temperature, followed by imaging with LI-COR imaging system Odyssey® CLx.
In general terms: A western blot detects proteins with antibodies after separation by electrophoresis.

Data set [5] deals with T1, CK1α. The data set can be described thus: Western blot of CK1α levels in HEK293 cell line. It counts as cell-based. As to conditions: cereblon present, 0.1, 1, 10 μM, 24 hours. As to the method: as §3, §4
Data set [6] in a line: Mouse oral PK at 10 mg/kg. To be noted: male, BALB/c, plasma. It counts as in vivo, Male BALB/c mice. As to the method: Male BALB/c mice were fasted overnight and administered a discrete, oral (PO) dose of Compound 107 or Compound 125 at 10 mg/kg.
Blood samples were collected serially from three animals/time-point following PO administration of the test compounds to the mice and placed in tubes containing K2EDTA. The blood samples were centrifuged, and the aliquots of the resulting plasma stored frozen at −60 to −90° C.
The plasma samples were analyzed by LC-MS/MS to determine concentrations of the test compounds. The in-life portion of the study and the bioanalysis of plasma samples was conducted at Wuxi (China).
The pharmacokinetic parameters for the tested compounds were calculated by non-compartmental analysis using Phoenix WinNonlin software.

T1 sequence (P48729 whole entry): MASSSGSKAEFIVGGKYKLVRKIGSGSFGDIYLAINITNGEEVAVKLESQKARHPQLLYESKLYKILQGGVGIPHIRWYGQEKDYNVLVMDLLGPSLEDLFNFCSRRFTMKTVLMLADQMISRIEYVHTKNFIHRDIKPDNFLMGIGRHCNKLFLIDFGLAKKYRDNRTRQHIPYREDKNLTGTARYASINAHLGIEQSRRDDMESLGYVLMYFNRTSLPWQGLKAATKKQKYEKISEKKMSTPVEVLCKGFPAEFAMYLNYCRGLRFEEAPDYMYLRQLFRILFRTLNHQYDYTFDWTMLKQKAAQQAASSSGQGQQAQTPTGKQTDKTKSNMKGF
T1 sequence (Q96SW2 whole entry): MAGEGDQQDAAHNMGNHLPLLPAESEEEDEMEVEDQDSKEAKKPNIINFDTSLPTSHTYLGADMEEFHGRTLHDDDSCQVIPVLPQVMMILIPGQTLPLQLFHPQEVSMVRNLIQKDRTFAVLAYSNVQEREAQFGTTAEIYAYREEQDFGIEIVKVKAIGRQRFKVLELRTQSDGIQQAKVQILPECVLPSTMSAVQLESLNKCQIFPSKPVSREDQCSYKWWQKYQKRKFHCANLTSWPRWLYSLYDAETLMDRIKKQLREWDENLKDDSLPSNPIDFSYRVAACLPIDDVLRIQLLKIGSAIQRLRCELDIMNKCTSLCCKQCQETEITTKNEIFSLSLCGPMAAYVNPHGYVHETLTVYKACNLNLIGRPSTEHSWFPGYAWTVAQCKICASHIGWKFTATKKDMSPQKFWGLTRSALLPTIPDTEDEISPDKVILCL
T1 sequence (Q16531 whole entry partner): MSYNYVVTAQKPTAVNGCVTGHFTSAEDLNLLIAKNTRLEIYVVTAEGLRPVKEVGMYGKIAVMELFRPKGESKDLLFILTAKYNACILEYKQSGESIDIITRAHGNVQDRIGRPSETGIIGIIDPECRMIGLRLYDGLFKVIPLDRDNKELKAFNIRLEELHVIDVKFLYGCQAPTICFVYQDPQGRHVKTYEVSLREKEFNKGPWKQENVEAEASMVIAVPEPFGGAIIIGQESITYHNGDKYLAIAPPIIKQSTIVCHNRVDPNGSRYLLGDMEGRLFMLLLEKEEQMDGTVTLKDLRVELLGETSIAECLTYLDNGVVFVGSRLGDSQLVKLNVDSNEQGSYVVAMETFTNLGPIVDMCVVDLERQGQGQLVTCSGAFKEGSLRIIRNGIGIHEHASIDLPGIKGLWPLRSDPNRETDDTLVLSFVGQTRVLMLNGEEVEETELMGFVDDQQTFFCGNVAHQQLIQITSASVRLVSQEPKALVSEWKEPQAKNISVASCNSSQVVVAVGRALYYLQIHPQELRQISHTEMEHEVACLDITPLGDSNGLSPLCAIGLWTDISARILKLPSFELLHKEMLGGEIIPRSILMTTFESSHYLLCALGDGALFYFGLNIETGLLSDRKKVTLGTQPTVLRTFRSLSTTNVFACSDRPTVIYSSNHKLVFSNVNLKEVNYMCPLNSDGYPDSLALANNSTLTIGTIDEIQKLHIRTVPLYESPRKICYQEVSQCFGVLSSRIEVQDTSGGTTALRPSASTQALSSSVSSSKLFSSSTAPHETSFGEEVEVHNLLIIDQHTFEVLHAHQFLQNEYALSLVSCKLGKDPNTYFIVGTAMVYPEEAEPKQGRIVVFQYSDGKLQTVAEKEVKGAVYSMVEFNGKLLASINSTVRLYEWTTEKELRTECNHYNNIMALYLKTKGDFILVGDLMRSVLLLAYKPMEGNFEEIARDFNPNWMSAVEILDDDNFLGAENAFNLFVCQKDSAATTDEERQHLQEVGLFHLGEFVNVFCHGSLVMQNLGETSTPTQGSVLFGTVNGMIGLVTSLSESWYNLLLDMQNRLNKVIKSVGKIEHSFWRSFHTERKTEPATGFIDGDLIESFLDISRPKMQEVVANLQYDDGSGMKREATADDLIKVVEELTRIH

As usually defined, the GI50 is the concentration giving 50% growth inhibition. Lower therefore signals more potent growth inhibition. With `O=C1CCC(N2Cc3cc(N4CCN(c5ccccc5)C4=O)ccc3C2=O)C(=O)N1` (stereo not shown) [Compound 101, 3-(1-oxo-5-(2-oxo-3-phenylimidazolidin-1-yl)isoindolin-2-yl)piperidine-2,6-dione], the GI50 in data set [1] is 100 to 1000 nM; in data set [2], over 1000 nM. Besides, the DC50 in data set [3] is at most 0.1 µM. Further, the entries for the “effect on CK1α levels (Western blot, FIG. 1)” value in data set [4] and in data set [5] were “no effect on CK1α levels” and “decreases CK1α levels”, respectively.

Usually Tmax stands for the time from dosing to the highest level. A word on the AUC: it is concentration integrated over time. In general, AUC(0-t) refers to exposure summed from dosing to a finite time, without extrapolation to infinity. Read a low AUC(0-t) as less exposure. One may read the Cmax as the peak of the concentration-time curve. In data set [1], `C[C@@H]1CN(c2ccc3c(c2)CN(C2CCC(=O)NC2=O)C3=O)C(=O)N1c1ccc(C2CC2)cc1` (stereo partly drawn) [Compound 125, 3-(5-((R)-3-(4-cyclopropylphenyl)-4-methyl-2-oxoimidazolidin-1-yl)-1-oxoisoindolin-2-yl)piperidine-2,6-dione] registered a GI50 of at most 100 nM. Moreover, the GI50 in data set [2] was in the range of 100 to 1000 nM. This molecule also had a DC50 in data set [3] of at most 0.1 µM. For the same molecule, in data set [6], the Tmax was 1 h. In data set [6] (Mean ± SD), this molecule yielded an AUC of 1860 ± 495 ng·h/mL, an exposure AUC(0-t) of 1790 ± 504 ng·h/mL and a Cmax of 717 ± 167 ng/mL.

For orientation: half-life means the time needed for the level to fall by half in the phase considered. The molecule `C[C@@H]1CN(c2ccc3c(c2)CN(C2CCC(=O)NC2=O)C3=O)C(=O)N1c1ccccc1` (stereo partly drawn) [Compound 107, 3-(5-((R)-4-methyl-2-oxo-3-phenylimidazolidin-1-yl)-1-oxoisoindolin-2-yl)piperidine-2,6-dione] yielded a GI50 in data set [1] of 100 to 1000 nM. This molecule also registered a DC50 in data set [3] of at most 0.1 µM. Also, the time to peak (Tmax) in data set [6] was 1 h. In data set [6] (Mean ± SD), this molecule showed an AUC of 5880 ± 1600 ng·h/mL, an area under the curve AUC(0-t) of 5590 ± 1830 ng·h/mL, a maximum concentration (Cmax) of 1520 ± 262 ng/mL and a half-life of 2.53 ± 0.37 h.
